Results as given in patent publication US20210087248A1, “MODIFIED FIBROBLAST GROWTH FACTOR 1 (FGF-1) POLYPEPTIDES WITH INCREASED BINDING AFFINITY FOR HEPARIN AND ASSOCIATED METHODS” (Florida State University Research Foundation, Inc., priority 2014, published 2021).

Tests used:
Experiment in all cases: Heparin affinity study with isothermal titration calorimetry (ITC), sucrose octasulfate titration
Type in all cases: binding
Conditions in all cases: 25 °C
[1] = target: T1, human FGF-1 wild-type, 140 amino acid form, N-terminal six His tag (hisFGF wild-type), SEQ ID NO: 1 (Homo sapiens, UniProt P05230)
T1 construct: six His tag (N); made in house; host or cells: pET21a(+) vector; E. coli BL21(DE3) is stated for the mutants, inferred for the wild type

[2] = target: human FGF-1 wild-type, no histag (no histag FGF wild-type), SEQ ID NO: 1 (Homo sapiens, UniProt P05230)
[3] = target: T2, human FGF-1 variant S116K (Ser116Lys), N-terminal six His tag (hisFGF S116K), SEQ ID NO: 3 (Homo sapiens, UniProt P05230, S131K)
T2 construct: six His tag (N); made in house; host or cells: E. coli BL21(DE3), pET21a (+)
Excerpt: (§1) A codon-optimized synthetic gene encoding 140 amino acids form of human FGF-1 (SEQ ID NO: 1) with an N-terminal six His tag was cloned into the pET21a (+) expression vector. The His tag has shown no influence upon stability, heparin affinity and mitogenic activity. Residue Ser116 inside of the heparin binding site of FGF-1 was mutated to Arginine (SEQ ID NO: 2) and Lysine (SEQ ID NO: 3) individually to increase potential ionic interactions with the sulfonate groups in HSGAG. This was achieved using a QUICKCHANGE site-directed mutagenesis protocol.
(§2) Each mutation was confirmed by DNA sequencing. The pET21a (+)/BL21(DE3) E. coli host expression system was used to express the FGF-1 heparin affinity mutants. The expressed polypeptide was purified via sequential nickel-nitrilotriacetic acid (Ni-NTA) column (Qiagen) and heparin Sepharose resin (GE Life Sciences, Pittsburgh Pa.). Previous studies of wild-type FGF-1 have shown that the above purification procedure results in protein >99% pure and appropriate for all biophysical studies.
(§3) Purified modified FGF-1 samples of SEQ ID NOs: 2 and 3 were dialyzed into 20 mM N-(2-acetamido) iminodiacetic acid (ADA), 100 mM NaCl, pH 7.4 for an ITC study. An iTC200 microcalorimeter (MicroCal) was used for data collection. […] The ITC running parameters were: 31 injections; first injection volume 0.5 μl and the rest of the injections 1 μl; temperature 25° C.; reference power 5. The titration curve after baseline subtraction was fitted with a single ligand-binding site model by manufacturer's software (MicroCal Origin). At least three independent trials were collected for each modified FGF-1 samples.

[4] = target: T3, human FGF-1 variant S116R (Ser116Arg), N-terminal six His tag (hisFGF S116R), SEQ ID NO: 2 (Homo sapiens, UniProt P05230, S131R)
T3 construct: six His tag (N); made in house; host or cells: E. coli BL21(DE3), pET21a (+)
Excerpt: as §1, §2, §3

[5] = single ligand-binding site model

T3 sequence (P05230 16-155 S131R): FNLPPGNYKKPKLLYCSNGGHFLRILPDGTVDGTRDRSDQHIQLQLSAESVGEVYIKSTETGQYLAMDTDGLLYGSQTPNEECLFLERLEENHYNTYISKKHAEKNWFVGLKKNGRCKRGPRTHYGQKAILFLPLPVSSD
Chain of human FGF-1 wild-type, no histag (no histag FGF wild-type), SEQ ID NO: 1 (P05230 16-155 limits assumed): as the sequence (P05230 16-155 S131R) above, with R116S counted along it
T1 sequence (P05230 16-155): as the sequence (P05230 16-155 S131R) above, with R116S counted along it
T2 sequence (P05230 16-155 S131K): as the sequence (P05230 16-155 S131R) above, with R116K counted along it

## O=S(=O)(O)OC[C@H]1O[C@@](COS(=O)(=O)O)(O[C@H]2O[C@H](COS(=O)(=O)O)[C@@H](OS(=O)(=O)O)[C@H](OS(=O)(=O)O)[C@H]2OS(=O)(=O)O)[C@@H](OS(=O)(=O)O)[C@@H]1OS(=O)(=O)O [sucrose octasulfate]
[1]; 20 mM ADA, 100 mM NaCl, pH 7.4
  Kd: 3.94 ± 0.19 µM
[1]; pH 7.4
  ΔH: (−7506) ± 95 cal/mol
  ΔS: (−0.44) ± 0.23 cal/mol/deg
[1]; [5]
  N (site): 0.917 ± 0.050
[2]; 20 mM ADA, 100 mM NaCl, pH 7.4
  Kd: 3.85 ± 0.09 µM
[2]; pH 7.4
  ΔH: (−6963) ± 65 cal/mol
  ΔS: 1.42 ± 0.18 cal/mol/deg
[2]; [5]
  N (site): 0.980 ± 0.035
[3]; 20 mM ADA, 100 mM NaCl, pH 7.4
  Kd: 3.1 ± 0.47 µM
[3]; pH 7.4
  ΔH: (−3339) ± 57 cal/mol
  ΔS: (−6.42) ± 3.04 cal/mol/deg
[3]; [5]
  N (site): 1.012 ± 0.014
[4]; 20 mM ADA, 100 mM NaCl, pH 7.4
  Kd: 2.46 ± 0.25 µM
[4]; pH 7.4
  ΔH: (−7081) ± 217 cal/mol
  ΔS: 1.84 ± 0.92 cal/mol/deg
[4]; [5]
  N (site): 0.942 ± 0.036
